Measurements published in US20030153056A1, “Glycosyltransferase proteins” (priority 2000, published 2003).

Assays:
Brainiac [1] = biological target: T1, Brainiac (Drosophila melanogaster, UniProt Q24157); assay: Initial analysis of Brainiac glycosyltransferase activity with monosaccharides and four UDP sugar nucleotides; type: biochemical; settings: panel of monosaccharides, donor UDP-GlcNAc, High Five cell microsomes
T1 construct: The full coding region of Brainiac was prepared by PCR using genomic DNA; made in house; host or cells: High Five insect cells (baculovirus vector pVL1393); microsomal fractions
T1 sequence (Q24157 1-325): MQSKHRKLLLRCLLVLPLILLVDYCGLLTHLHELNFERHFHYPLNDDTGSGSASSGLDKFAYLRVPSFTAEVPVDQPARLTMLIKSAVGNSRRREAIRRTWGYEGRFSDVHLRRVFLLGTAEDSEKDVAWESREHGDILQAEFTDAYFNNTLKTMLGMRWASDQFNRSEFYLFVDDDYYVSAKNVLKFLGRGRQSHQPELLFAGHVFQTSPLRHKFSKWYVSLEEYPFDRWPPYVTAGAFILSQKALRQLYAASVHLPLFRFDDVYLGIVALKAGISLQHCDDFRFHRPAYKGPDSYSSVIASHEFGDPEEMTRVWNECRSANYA
Description: (§1) Brainiac-full was cloned into baculovirus vector pVL1393 (Pharmingen) and expressed in High Five cells. Microsomal fractions were prepared as described above for Fringe but with 0.5% N-octylglucoside as Triton X-100 and related detergents destroyed the activity. Initial analysis of activity was done with five monosaccharides and four donor sugar nucleotides as described in FIG. 5 for Fringe. Assays with the acceptors listed in Table 1 were performed as described for Fringe except no additional detergent was added. Reactions with glycolipid substrates were performed in the presence of 0.5% N-octylglucoside in 50 ul reaction volume containing 10 μg glycolipid.
In the latter case the acceptor sugar was not determined.

[2] = biological target: T2, Brainiac β1-3-N-acetylglucosaminyltransferase (Drosophila melanogaster, UniProt Q24157); assay: Substrate specificities of Brainiac β1-3-N-acetylglucosaminyltransferase (acceptor panel, microsomal preparations); type: biochemical; settings: microsomes of pVL-Brainiac infected High Five cells, background of irrelevant construct subtracted, donor UDP-GlcNAc
T2 construct: The full coding region of Brainiac was prepared by PCR using genomic DNA; made in house; host or cells: High Five insect cells (baculovirus vector pVL1393); microsomal fractions
T2 sequence (Q24157 1-325): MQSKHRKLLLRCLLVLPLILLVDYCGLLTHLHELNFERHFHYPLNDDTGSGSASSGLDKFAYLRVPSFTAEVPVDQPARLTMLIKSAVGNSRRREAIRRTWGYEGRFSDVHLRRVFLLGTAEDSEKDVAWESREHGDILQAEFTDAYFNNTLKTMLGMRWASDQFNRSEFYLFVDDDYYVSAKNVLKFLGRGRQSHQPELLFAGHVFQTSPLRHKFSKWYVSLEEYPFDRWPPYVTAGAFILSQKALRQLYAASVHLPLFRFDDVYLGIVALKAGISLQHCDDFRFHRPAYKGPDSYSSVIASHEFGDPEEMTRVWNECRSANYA

Fringe = biological target: T3, Fringe (Drosophila melanogaster, UniProt Q24342); assay: Fringe glycosyltransferase assay, transfer of 14C-labelled UDP-donor sugars onto acceptor sugars; type: biochemical; settings: for Acceptor for Fringe, in words: microsomal fractions of High Five cells
T3 construct: made in house; host or cells: High Five insect cells (baculovirus vector pVL1393); solubilised microsomal fractions
T3 sequence (Q24342 1-412): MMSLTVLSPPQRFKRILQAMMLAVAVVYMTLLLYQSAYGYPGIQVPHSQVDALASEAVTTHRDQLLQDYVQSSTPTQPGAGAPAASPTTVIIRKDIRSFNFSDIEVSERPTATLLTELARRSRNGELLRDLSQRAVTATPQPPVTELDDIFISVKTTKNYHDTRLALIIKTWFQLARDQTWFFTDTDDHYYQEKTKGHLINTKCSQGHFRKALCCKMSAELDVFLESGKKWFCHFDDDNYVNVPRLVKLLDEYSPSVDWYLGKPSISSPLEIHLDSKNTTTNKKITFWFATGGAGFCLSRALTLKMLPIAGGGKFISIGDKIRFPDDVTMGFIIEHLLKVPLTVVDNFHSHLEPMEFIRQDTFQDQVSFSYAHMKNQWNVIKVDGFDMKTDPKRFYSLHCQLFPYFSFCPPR
Description: Fringe-Myc and Fringe-NNN-myc were cloned into baculovirus vector pVL1393 (Pharmingen) and expressed in High Five™ cells. Microsomal fractions were prepared by hypotonic lysis ultracentrifugation and solubilised 1:2 (vol/vol) in 20 mM Cacodylate pH 6.5, 1% Triton-CF54, 5 MM MnCl2 containing Leupeptin and Aprotinin as described previously (Amado et al., 1998). For glycosyltransferase assays, 5 μl of this suspension were added to a total of 50 μl reaction mixture containing 25 mM Cacodylate pH 6.5, 0.25% Triton-CF54, 5 mM MnCl2, 500 mM free sugar, 100 μM UDP-^14C-sugar (1280-2000 cpm/nmol). Reactions were incubated at 37° C. for 45-60 minutes, followed by Dowex-1 anion exchange chromatography and scintillation counting of 50% of the flow-through.
To ask whether Fringe has intrinsic glycosyltransferase activity, Fringe-wt and Fring-NNN were produced by baculovirus-infection of insect cells. Microsomal fractions enriched for Golgi membranes were partially solubilized and assayed for the ability to the expressed proteins to catalyze the transfer of ^14C-labelled UDP-donor sugars onto acceptor sugars. A variety of different donor/acceptor combinations were tested (FIG. 5b).
Enzyme activity was measured by transfer of ^14C-labelled donor sugars (as UDP-conjugates) onto acceptor sugars. In FIG. 5b, average results from two experiments are shown. Donors tested were UDP-Glucose (Glc), UDP-Galactose (Gal), UDP-N-acetyl-Glucosamine (GlcNAc) and N-acetyl-Galactosamine (GalNAc). Acceptors tested were Glucose, Galactose, GlcNAc, GalNAc and Fucose.

Brainiac [3] = biological target: T1, Brainiac; assay: Brainiac activity towards glycosphingolipids; type: biochemical; settings: 10 μg purified glycolipid, 300 μM UDP-14C-N-acetylglucosamine, FIG. 8
Description: FIG. 8: Brainiac activity towards glycosphingolipids purified from insect cells. Microsomal fractions (1.5 mg) of insect cells transfected with pVL-brainiac and pVL-fringe were used as the enzyme source. Reactions contained 10 μg of purified glycolipids and 300 μM of UDP-^14C-N-acetylglucosamine (8200 cpm/nmol). Products were purified on C18-silica cartridges, spotted on HPTLC-plates, developed in 60:35:8 (chloroform:methanol:water) and exposed for autoradiography.
as §1
Glycolipids were obtained from Sigma or purified from High Five insect cells grown in serum free medium. […]

human β3GnT2 = biological target: T4, human β3GnT2 (Homo sapiens, UniProt Q9NY97); assay: human β3GnT2 activity with glycolipid acceptors; type: biochemical; settings: not shown
T4 sequence (Q9NY97 1-397): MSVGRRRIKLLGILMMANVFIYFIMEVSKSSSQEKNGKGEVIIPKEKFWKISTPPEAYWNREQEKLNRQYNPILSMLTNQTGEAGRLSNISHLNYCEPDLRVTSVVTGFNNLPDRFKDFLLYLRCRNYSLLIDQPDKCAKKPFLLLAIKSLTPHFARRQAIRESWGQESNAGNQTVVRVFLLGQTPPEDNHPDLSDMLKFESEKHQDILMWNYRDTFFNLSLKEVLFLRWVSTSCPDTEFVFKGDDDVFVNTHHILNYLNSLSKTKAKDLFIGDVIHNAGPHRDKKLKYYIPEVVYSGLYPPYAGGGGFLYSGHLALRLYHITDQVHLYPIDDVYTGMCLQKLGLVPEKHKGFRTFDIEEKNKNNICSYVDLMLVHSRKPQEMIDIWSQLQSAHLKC
Excerpt: It is interesting to note that Brainiac also functions with Lac-Cer, a glycolipid which has never been described from insects. Brainiac is the ancestral gene of a very large homologous β3glycosyltransferase gene family in mammalian cells, and the members of this family with closest sequence similarity to Brainiac is represented by a family of β3GlcNAc-transferases with similar specificity for Lac-Cer (Shiraishi et al., 2001, J. Biol. Chem., 276: 3498-3507.). One of these designated human β3GnT2 was analysed in detail and shown to use Lac-Cer but not Mac-Cer (not shown).

Notch = biological target: T5, Notch (Drosophila melanogaster, UniProt P07207); assay: Delta-AP binding to Notch transfected S2 cells; type: cell-based
T5 construct: expressed in transfected cells; host or cells: Drosophila Schneider S2 cells, transient transfection, pRmHa3
T5 sequence (P07207 53-2703): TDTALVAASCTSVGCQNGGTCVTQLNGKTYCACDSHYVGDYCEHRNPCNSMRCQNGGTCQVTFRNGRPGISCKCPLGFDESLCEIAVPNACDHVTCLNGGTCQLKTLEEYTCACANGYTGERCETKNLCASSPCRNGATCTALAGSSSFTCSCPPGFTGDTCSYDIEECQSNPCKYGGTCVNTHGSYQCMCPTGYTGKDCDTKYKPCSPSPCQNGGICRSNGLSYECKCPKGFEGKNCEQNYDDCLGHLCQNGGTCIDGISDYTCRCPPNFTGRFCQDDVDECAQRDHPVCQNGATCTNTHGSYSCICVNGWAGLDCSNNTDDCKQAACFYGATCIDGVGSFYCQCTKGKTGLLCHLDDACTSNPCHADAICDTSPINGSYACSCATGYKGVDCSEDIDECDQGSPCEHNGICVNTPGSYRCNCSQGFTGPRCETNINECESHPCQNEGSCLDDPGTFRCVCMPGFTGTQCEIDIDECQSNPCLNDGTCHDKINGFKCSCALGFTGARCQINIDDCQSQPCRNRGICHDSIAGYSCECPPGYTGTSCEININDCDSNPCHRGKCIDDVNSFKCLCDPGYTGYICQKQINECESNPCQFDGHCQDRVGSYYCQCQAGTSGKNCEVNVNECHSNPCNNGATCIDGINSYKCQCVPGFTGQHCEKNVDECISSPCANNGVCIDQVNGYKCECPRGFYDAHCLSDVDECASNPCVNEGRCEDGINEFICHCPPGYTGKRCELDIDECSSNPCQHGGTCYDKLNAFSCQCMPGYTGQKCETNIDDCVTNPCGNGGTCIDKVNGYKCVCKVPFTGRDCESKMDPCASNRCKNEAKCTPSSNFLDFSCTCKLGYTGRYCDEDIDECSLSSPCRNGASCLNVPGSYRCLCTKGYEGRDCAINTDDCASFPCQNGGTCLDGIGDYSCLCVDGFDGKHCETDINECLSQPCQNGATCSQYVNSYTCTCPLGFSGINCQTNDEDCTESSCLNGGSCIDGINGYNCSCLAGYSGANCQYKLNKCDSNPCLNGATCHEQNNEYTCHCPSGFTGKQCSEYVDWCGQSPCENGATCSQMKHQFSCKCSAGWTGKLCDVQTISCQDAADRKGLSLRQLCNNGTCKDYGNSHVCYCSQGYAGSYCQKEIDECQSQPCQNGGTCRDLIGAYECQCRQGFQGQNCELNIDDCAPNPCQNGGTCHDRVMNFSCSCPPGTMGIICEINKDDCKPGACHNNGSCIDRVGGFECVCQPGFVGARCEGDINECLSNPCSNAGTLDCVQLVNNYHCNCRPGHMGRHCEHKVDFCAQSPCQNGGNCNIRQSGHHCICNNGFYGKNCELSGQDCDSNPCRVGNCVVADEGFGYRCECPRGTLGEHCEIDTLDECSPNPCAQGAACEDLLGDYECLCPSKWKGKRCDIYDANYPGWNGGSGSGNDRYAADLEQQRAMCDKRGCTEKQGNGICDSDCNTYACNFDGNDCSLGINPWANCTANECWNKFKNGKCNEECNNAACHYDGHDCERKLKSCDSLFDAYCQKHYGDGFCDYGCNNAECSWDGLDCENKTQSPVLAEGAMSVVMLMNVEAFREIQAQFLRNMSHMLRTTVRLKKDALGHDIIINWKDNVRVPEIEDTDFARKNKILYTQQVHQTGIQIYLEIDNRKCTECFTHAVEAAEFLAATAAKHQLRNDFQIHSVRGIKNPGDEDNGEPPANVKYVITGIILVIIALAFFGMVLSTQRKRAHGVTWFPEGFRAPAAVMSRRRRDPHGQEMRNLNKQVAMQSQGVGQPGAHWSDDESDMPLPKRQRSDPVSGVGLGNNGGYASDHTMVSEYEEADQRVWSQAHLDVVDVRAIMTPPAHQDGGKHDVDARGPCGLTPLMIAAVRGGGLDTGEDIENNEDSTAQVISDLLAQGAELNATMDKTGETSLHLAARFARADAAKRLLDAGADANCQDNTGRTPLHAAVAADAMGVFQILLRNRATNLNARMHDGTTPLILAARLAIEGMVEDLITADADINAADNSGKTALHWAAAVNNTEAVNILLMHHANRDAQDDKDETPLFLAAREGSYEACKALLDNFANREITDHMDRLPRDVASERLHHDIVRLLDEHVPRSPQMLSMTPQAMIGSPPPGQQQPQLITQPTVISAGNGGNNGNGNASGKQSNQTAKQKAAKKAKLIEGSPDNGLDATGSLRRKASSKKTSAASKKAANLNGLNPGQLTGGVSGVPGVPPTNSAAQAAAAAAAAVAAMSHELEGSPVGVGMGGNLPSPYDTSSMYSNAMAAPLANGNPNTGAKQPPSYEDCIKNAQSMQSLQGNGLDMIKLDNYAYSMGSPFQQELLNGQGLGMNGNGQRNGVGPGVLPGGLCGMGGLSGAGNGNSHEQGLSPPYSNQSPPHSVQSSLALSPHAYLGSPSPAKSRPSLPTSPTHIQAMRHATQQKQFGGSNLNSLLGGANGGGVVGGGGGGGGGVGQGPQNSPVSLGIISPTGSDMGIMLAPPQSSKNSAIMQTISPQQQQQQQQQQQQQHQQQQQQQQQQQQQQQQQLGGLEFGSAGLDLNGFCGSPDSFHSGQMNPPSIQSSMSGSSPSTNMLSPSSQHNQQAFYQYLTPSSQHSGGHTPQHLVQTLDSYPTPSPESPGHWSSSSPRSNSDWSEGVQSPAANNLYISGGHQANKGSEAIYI
Description: Cell culture and Binding assays: cDNAs for expression in Schneider S2 cells were cloned into pRmHa3. Cells were transiently transfected by the CaPO4 method using 6-8 μg of DNA per well in 6 well plates. Expression was induced by addition of 0.7 mM CuSO4 for 2 days. Conditioned medium was collected from Notch-AP and Delta-AP transfected cells 2 days after induction. AP activity was adjusted to normalise activity levels of Notch-AP or Delta-AP expressed with or without Fringe. Binding was performed as described in Cheng and Flanagan, 1994. In brief, AP-containing supernatants were supplemented with 0.1% NaN3, and incubated 90 min at room temperature. Cells were washed 5 times in HBSS containing 0.05% BSA and 0.1% azide, and lysed in 10 mM Tris pH 8, 1% Triton-X100. Endogenous AP was inactivated by heat treatment for 10 min 60° C. and the lysates clarified by centrifugation. AP activity was measured in 1M Diethanolamine, 1 mM MgCl2, 5 mM para-nitrophenyl phosphate. Bound AP activity was quantified in 96 well plates using a microplate reader and Micromanager software (BioRad). An additional replicate of each transfection was prepared for immunoblot analysis. Lysates were prepared separately for Immunoblot analysis to allow inclusion of protease inhibitors which are not used in the binding assay. To measure interaction of Delta-AP with transiently transfected S2 cells, bound AP activity was quantified in an enzymatic colour reaction. Cells transfected with empty vector were used as a control. […] AP activity is shown in mOD units/minute in cell extracts (replicate experiments are shown in this figure). In this experiment Fringe stimulated binding by over 50 fold. […] However, the assay allows measurement of Fringe-dependent stimulation of Delta-AP binding.

OC[C@H]1OC(O)[C@@H](O)[C@@H](O)[C@@H]1O (stereo partly drawn) [D-Man]
Acceptor for Brainiac, in words (initial analysis) (Brainiac [1]): best acceptor | Brainiac activity with substrate ([2]; substrate 2 mM): 0.28 nmol/h/mg | Brainiac activity with substrate ([2]; substrate 20 mM): 1.70 nmol/h/mg

C[C@H](O)[C@@H](O)[C@@H](O)[C@H](O)C=O [Fucose]
Glycosyltransferase activity of Fringe-wt microsome lysate over background level observed with Fringe-NNN (Fringe; donor UDP-N-acetylglucosamine (GlcNAc), average of two experiments, FIG. 5b): 18 fold

C[C@@H]1OC(O)[C@@H](O)[C@H](O)[C@@H]1O (stereo partly drawn) [L-Fuc]
Acceptor for Brainiac, in words (initial analysis) (Brainiac [1]): poor substrate | Brainiac activity with substrate ([2]; substrate 2 mM): 0.00 nmol/h/mg | Brainiac activity with substrate ([2]; substrate 20 mM): 0.05 nmol/h/mg

C[C@@H]1O[C@@H](Oc2ccc([N+](=O)[O-])cc2)[C@@H](O)[C@H](O)[C@@H]1O [L-Fucα1-pNph]
Acceptor for Fringe, in words (Fringe): did not act as acceptors | Brainiac activity with substrate ([2]; substrate 2 mM): 0.02 nmol/h/mg | Brainiac activity with substrate ([2]; substrate 20 mM): 0.03 nmol/h/mg

C[C@@H]1O[C@H](Sc2ccc([N+](=O)[O-])cc2)[C@@H](O)[C@H](O)[C@@H]1O [β-L-Fuc-1-thio-p-Nph]
Acceptor for Fringe, in words (Fringe): did not act as acceptors

Galβ1-4Glcβ1-Cer
Glycolipid substrate for Brainiac, in words (Brainiac [3]): served as a substrate | Glycolipid used by human β3GnT2, in words (human β3GnT2): use Lac-Cer

Manβ1-4Glcβ1-Cer
Glycolipid substrate for Brainiac, in words (Brainiac [3]): efficient substrate | Glycolipid used by human β3GnT2, in words (human β3GnT2): not Mac-Cer

B1: Fringe: Drosophila Fringe protein with a single C-terminal myc-epitope tag (protein, UniProt Q24342 1-412, looked up)
Fringe glycosyltransferase: MMSLTVLSPPQRFKRILQAMMLAVAVVYMTLLLYQSAYGYPGIQVPHSQVDALASEAVTTHRDQLLQDYVQSSTPTQPGAGAPAASPTTVIIRKDIRSFNFSDIEVSERPTATLLTELARRSRNGELLRDLSQRAVTATPQPPVTELDDIFISVKTTKNYHDTRLALIIKTWFQLARDQTWFFTDTDDHYYQEKTKGHLINTKCSQGHFRKALCCKMSAELDVFLESGKKWFCHFDDDNYVNVPRLVKLLDEYSPSVDWYLGKPSISSPLEIHLDSKNTTTNKKITFWFATGGAGFCLSRALTLKMLPIAGGGKFISIGDKIRFPDDVTMGFIIEHLLKVPLTVVDNFHSHLEPMEFIRQDTFQDQVSFSYAHMKNQWNVIKVDGFDMKTDPKRFYSLHCQLFPYFSFCPPR
modifications: C-terminal myc tag
Delta-AP binding, in words (Notch; Notch-expressing cells co-cultured with Fringe-expressing cells for two days (secreted Fringe)): Delta-AP bound at background level | Effect on Delta-AP binding, in words (Notch; co-expressed with Notch in S2 cells): large increase in Delta-AP binding | Stimulation of Delta-AP binding (Notch; co-expressed with Notch in S2 cells, FIG. 3b): over 50 fold
